ChEMBL document CHEMBL1141463, “In vitro anti-inflammatory activity of 3-O-methyl-flavones isolated from Siegesbeckia glabrescens” (Bioorg Med Chem Lett, 2008)
Calls of active or inactive are those of the source. The rule behind the calls is not given here.

Experiments:
[1] = Peroxynitrite scavenging activity assessed as inhibition of DHR 123 oxidation; assay type: functional
BV-2 [2] = assay: Inhibition of LPS-induced NO production in mouse BV2 cells; assay type: functional, cell-based
BV-2 [3] = assay: Decrease in iNOS protein expression in LPS-activated mouse BV2 cells at 20 uM; assay type: functional, cell-based

| Structure (SMILES) | SC50 [1] [µM] | IC50 (BV-2 [2]) [µM] | Activity (BV-2 [3]) |
| --- | --- | --- | --- |
| CC(C)(S)[C@@H](N)C(=O)O | 5.13 | – | – |
| CNC(=N)NCCC[C@H](N)C(=O)O [TILARGININE] | – | 13.2 | – |
| O=c1c(O)c(-c2ccc(O)c(O)c2)oc2cc(O)cc(O)c12 [QUERCETIN] | – | 29.6 | – |
| COc1c(-c2ccc(O)c(O)c2)oc2cc(O)cc(O)c2c1=O [3-O-METHYLQUERCETIN] | 0.77 | 3.8 | Active |
